biological target: T1, human IL-17A (Homo sapiens, UniProt Q16552); assay: IL-17A AlphaLISA competition assay (block of IL-17A binding to its receptor IL-17RA); conditions: mean IC50 (n≥2), block of IL-17A binding to IL-17RA
T1 construct: purchased R&D Systems 7955-IL/CF
T1 sequence (Q16552 24-155): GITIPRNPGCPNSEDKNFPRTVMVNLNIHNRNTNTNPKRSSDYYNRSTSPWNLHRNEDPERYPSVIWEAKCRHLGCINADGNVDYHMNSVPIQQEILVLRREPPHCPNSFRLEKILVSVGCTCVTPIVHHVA
Method: The ability of the compounds to block binding of IL-17A to its receptor, IL-17RA, was analysed in a competition assay using AlphaLISA technology (Perkin Elmer). The assay is a bead based AlphaLISA where the IL-17RA is captured on the acceptor bead via an Fc tag and IL-17A is captured on the streptavidin donor bead via a biotinylated anti-IL17A antibody.
Assay buffer was prepared by adding 0.05% Tween-20 (v/v) and 0.1% BSA to Phosphate Buffered Saline (PBS). The assay was carried out in 384-well white low volume plates (Perkin Elmer #6008359). 10 μL of a 7.5 nM stock of human recombinant IL-17A (R&D Systems 7955-IL/CF) diluted in assay buffer was dispensed into the assay plate and compounds or DMSO vehicle control were added in a volume of 75 nL using an acoustic dispenser (Beckman). The compounds were pre-incubated with the IL-17A for 30 min at room temperature prior to addition of 5 μL of a 5 nM stock of human recombinant IL-17RA/Fc chimera (R&D Systems 177-IR-100) diluted in assay buffer. The IL-17A was incubated with the receptor for a further 90 minutes at room temperature before addition of 5 μL of a mixture of anti-human Fc IgG acceptor beads (75 μg/mL, Perkin Elmer AL1030) and anti-IL-17A biotin conjugated antibody (5 nM, Abcam, #ab155575) in assay buffer. After a further 30 min incubation at room temperature, 5 μL of streptavidin donor beads (75 μg/mL, Perkin Elmer 6760002S) were added and the plate was incubated for 3 h in the dark.
The AlphaLisa signal was measured using the PheraSTAR plate reader (BMG). Data were analysed using GeneData Screener and fitted to a 4-parameter logistic equation. The IC50 values were calculated using the DMSO vehicle as the negative control and a high concentration (4 μM) of a reference IL-17A inhibitor as the positive control. All compounds were analysed at least in duplicate (n≥2).

| Compound | IC50 |
| --- | --- |
| COCC(c1ccnc(NC(=O)[C@@H](NC(=O)c2nocc2C2CC2)[C@H]2CC[C@H](C)CC2)c1)N1C[C@@H](C(F)(F)F)NC1=O (single isomer, unassigned) [Example 121] | 0.023 µM |
| CCc1nonc1C(=O)N[C@H](C(=O)Nc1cc([C@@H](COC)N2C[C@@H](C(F)(F)F)NC2=O)ccn1)C1CCC(F)(F)CC1 [Example 187, N—((S)-1-(4,4-Difluorocyclohexyl)-2-((4-((S)-2-methoxy-1-((S)-2-oxo-4-(trifluoromethyl)imidazolidin-1-yl)ethyl)pyridin-2-yl)amino)-2-oxoethyl)-4-ethyl-1,2,5-oxadiazole-3-carboxamide] | 0.017 µM |
| CC1(C)CN(Cc2ccnc(NC(=O)[C@@H](NC(=O)OC(C)(C)C)[C@H]3CC[C@H](C)CC3)c2)C(=O)N1 [Example 24, Tert-butyl ((S)-2-((4-((4,4-dimethyl-2-oxoimidazolidin-1-yl)methyl)pyridin-2-yl)amino)-1-((1r,4S)-4-methylcyclohexyl)-2-oxoethyl)carbamate] | 1.05 µM |
| COCC(NC(=O)CCC(F)(F)F)c1ccnc(NC(=O)[C@@H](NC(=O)c2nccn2C(C)C)C2CCC(F)(F)CC2)c1 (single isomer, unassigned) [Example 141] | 0.646 µM |
| C[C@H]1CC[C@H]([C@H](NC(=O)C2(F)CC2)C(=O)Nc2cc(CN3C[C@@H](C(F)(F)F)NC3=O)ccn2)CC1 [Example 67, 1-fluoro-N-((S)-1-((1r,4S)-4-methylcyclohexyl)-2-oxo-2-((4-(((S)-2-oxo-4-(trifluoromethyl)imidazolidin-1-yl)methyl)pyridin-2-yl)amino)ethyl)cyclopropane-1-carboxamide] | 0.809 µM |
| COCC(c1ccnc(NC(=O)[C@@H](NC(=O)c2nonc2C2CC2)C2CCC(F)(F)CC2)c1)[C@H]1C[C@@H](C(F)(F)F)NC1=O (single isomer, unassigned) [Example 185, 4-Cyclopropyl-N-((1S)-1-(4,4-difluorocyclohexyl)-2-((4-((R or S)-2-methoxy-1-((3R,5S)-2-oxo-5-(trifluoromethyl)pyrrolidin-3-yl)ethyl)pyridin-2-yl)amino)-2-oxoethyl)-1,2,5-oxadiazole-3-carboxamide] | 0.046 µM |
| COCC(NC(=O)CCC(F)(F)F)c1ccnc(NC(=O)C(NC(=O)c2ccnn2C)C2CCC(C)CC2)c1 [Example 245, N-((1S)-2-((4-(2-methoxy-1-(4,4,4-trifluorobutanamido)ethyl)pyridin-2-yl)amino)-1-((1r,4S)-4-methylcyclohexyl)-2-oxoethyl)-1-methyl-1H-pyrazole-5-carboxamide] | 0.073 µM |
| COC[C@H](c1ccnc(NC(=O)[C@@H](NC(=O)c2nocc2C(C)C)C2CCC(F)(F)CC2)c1)N1C[C@@H](C(F)(F)F)NC1=O [Example 188, N-((S)-1-(4,4-difluorocyclohexyl)-2-((4-((S)-2-methoxy-1-((S)-2-oxo-4-(trifluoromethyl)imidazolidin-1-yl)ethyl)pyridin-2-yl)amino)-2-oxoethyl)-4-isopropylisoxazole-3-carboxamide] | 0.031 µM |
| CCn1nccc1C(=O)N[C@H](C(=O)Nc1cc(C[C@H]2C[C@@H](C(F)(F)F)NC2=O)ccn1)C1CCC(F)(F)CC1 [Example 223, N-((S)-1-(4,4-difluorocyclohexyl)-2-oxo-2-((4-(((3S,5S)-2-oxo-5-(trifluoromethyl)pyrrolidin-3-yl)methyl)pyridin-2-yl)amino)ethyl)-1-ethyl-1H-pyrazole-5-carboxamide] | 0.084 µM |
| CC(C)n1nccc1C(=O)N[C@H](C(=O)Nc1cc(CN2C[C@@H](C(F)(F)F)NC2=O)ccn1)C1CCC(F)(F)CC1 [Example 12, N-((S)-1-(4,4-difluorocyclohexyl)-2-oxo-2-((4-(((S)-2-oxo-4-(trifluoromethyl)imidazolidin-1-yl)methyl)pyridin-2-yl)amino)ethyl)-1-isopropyl-1H-pyrazole-5-carboxamide] | 0.106 µM |
| COC[C@H](c1ccnc(NC(=O)[C@@H](NC(=O)c2ccnn2C(C)C)C2CC(F)(F)C2)c1)N1C[C@@H](C(F)(F)F)NC1=O [Example 262, N—((S)-1-(3,3-difluorocyclobutyl)-2-((4-((S)-2-methoxy-1-((S)-2-oxo-4-(trifluoromethyl)imidazolidin-1-yl)ethyl)pyridin-2-yl)amino)-2-oxoethyl)-1-isopropyl-1H-pyrazole-5-carboxamide] | 0.198 µM |
| Cn1nccc1C(=O)N[C@H](C(=O)Nc1cc(CN2C[C@@H](C(F)(F)F)NC2=O)ccn1)C1CCC(F)(F)CC1 [Example 9, N-((S)-1-(4,4-difluorocyclohexyl)-2-oxo-2-((4-(((S)-2-oxo-4-(trifluoromethyl)imidazolidin-1-yl)methyl)pyridin-2-yl)amino)ethyl)-1-methyl-1H-pyrazole-5-carboxamide] | 0.422 µM |
| O=C(CCC(F)(F)F)NC(c1ccnc(NC(=O)[C@@H](NC(=O)c2nonc2C2CC2)C2CCC(F)(F)CC2)c1)C1CC1 (stereo partly drawn) [Example 96, 4-Cyclopropyl-N-((1S)-2-((4-(cyclopropyl(4,4,4-trifluorobutanamido)-methyl)pyridin-2-yl)amino)-1-(4,4-difluorocyclohexyl)-2-oxoethyl)-1,2,5-oxadiazole-3-carboxamide] | 0.096 µM |
| CC[C@H](c1ccnc(NC(=O)[C@@H](NC(=O)c2nonc2C)[C@H]2CC[C@H](C)CC2)c1)N1C[C@@H](C(F)(F)F)NC1=O [Example 256, 4-methyl-N—((S)-1-((1r,4S)-4-methylcyclohexyl)-2-oxo-2-((4-((R)-1-((S)-2-oxo-4-(trifluoromethyl)imidazolidin-1-yl)propyl)pyridin-2-yl)amino)ethyl)-1,2,5-oxadiazole-3-carboxamide] | 0.034 µM |
| Cn1nccc1C(=O)N[C@H](C(=O)Nc1cc(CN2C[C@@H](C(F)(F)F)NC2=O)c(F)cn1)[C@H]1CC[C@H](C)CC1 [Example 64, N-((S)-2-((5-fluoro-4-(((S)-2-oxo-4-(trifluoromethyl)-imidazolidin-1-yl)methyl)-pyridin-2-yl)amino)-1-((1r,4S)-4-methylcyclo-hexyl)-2-oxoethyl)-1-methyl-1H-pyrazole-5-carboxamide] | 1.23 µM |
| CCc1nocc1C(=O)N[C@H](C(=O)Nc1cc([C@@H](CC)N2C[C@@H](C(F)(F)F)NC2=O)ccn1)C1CCC(F)(F)CC1 [Example 210, N-((S)-1-(4,4-difluorocyclohexyl)-2-oxo-2-((4-((R)-1-((S)-2-oxo-4-(trifluoromethyl)imidazolidin-1-yl)propyl)pyridin-2-yl)amino)ethyl)-3-ethylisoxazole-4-carboxamide] | 0.038 µM |
| COC[C@H](c1ccnc(NC(=O)[C@@H](NC(=O)c2nonc2C)C2CCC(F)(F)CC2)c1)N1C[C@@H](C(F)(F)F)NC1=O [Example 199, N-((S)-1-(4,4-difluorocyclohexyl)-2-((4-((S)-2-methoxy-1-((S)-2-oxo-4-(trifluoromethyl)imidazolidin-1-yl)ethyl)pyridin-2-yl)amino)-2-oxoethyl)-4-methyl-1,2,5-oxadiazole-3-carboxamide] | 0.033 µM |
| [2H]C(c1ccnc(NC(=O)[C@@H](NC(=O)c2nonc2C2CC2)[C@H]2CC[C@H](C)CC2)c1)N1C[C@@H](C(F)(F)F)NC1=O (stereo partly drawn) [Example 231, 4-Cyclopropyl-N-((1S)-1-((1r,4S)-4-methylcyclohexyl)-2-oxo-2-((4-(((S)-2-oxo-4-(trifluoromethyl)imidazolidin-1-yl)methyl-d)pyridin-2-yl)amino)ethyl)-1,2,5-oxadiazole-3-carboxamide] | 0.038 µM |
